Experimental data published in patent US20230265151A1, “GIP/GLP1 CO-AGONIST COMPOUNDS” (priority 2020, published 2023).
Where two headings read alike, the source gives them in different places. Where a SMILES comes first, the peptide text is derived from it. Side-chain parts run from the residue outwards. [ ]: non-standard residue; d: D form. The star is where a group is joined. αMePhe(2-F) = C[C@](N)(Cc1ccccc1F)C(=O)O; C14 diacid = O=C(O)CCCCCCCCCCCCC(=O)*; αMeY = C[C@](N)(Cc1ccc(O)cc1)C(=O)O; αMeL = CC(C)C[C@](C)(N)C(=O)O; Orn = NCCC[C@H](N)C(=O)O; AEEA = NCCOCCOCC(=O)O; Aib = CC(C)(N)C(=O)O

How the values were obtained:
Assay type in all cases: cell-based
hGIPR = biological target: T1, hGIPR (Homo sapiens, UniProt P48546); assay: Functional cAMP formation (HTRF) in HEK-293 clonal cells expressing hGIPR, 0.1% bovine casein, without or with 1.0% human serum albumin; settings: for EC50: cAMP, 0.1% bovine casein (no human serum albumin), geometric mean, read-out: hGIPR EC50, nM (SEM, n)
T1 construct: expressed in transfected cells
T1 sequence (P48546 22-466): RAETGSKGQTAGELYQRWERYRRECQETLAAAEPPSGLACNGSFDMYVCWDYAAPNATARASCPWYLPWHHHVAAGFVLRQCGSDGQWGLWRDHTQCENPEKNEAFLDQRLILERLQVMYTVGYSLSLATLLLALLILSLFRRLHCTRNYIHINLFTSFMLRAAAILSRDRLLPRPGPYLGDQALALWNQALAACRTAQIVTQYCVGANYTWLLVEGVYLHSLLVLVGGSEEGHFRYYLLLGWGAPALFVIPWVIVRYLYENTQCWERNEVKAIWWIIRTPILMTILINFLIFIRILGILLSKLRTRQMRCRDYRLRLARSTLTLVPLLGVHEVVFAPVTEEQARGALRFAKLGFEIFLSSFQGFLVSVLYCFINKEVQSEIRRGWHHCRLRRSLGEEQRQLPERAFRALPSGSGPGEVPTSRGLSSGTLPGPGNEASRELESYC
Summary of the method: (§1)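 Cells were stimulated with peptide for 30 min at 37° C, then intracellular cAMP was measured by competitive HTRF (665/620 nm ratio) and converted to nM using a cAMP standard curve. Relative EC50 and Emax came from four-parameter logistic fits of percent maximal response against peptide concentration.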

hGCGR = biological target: T2, hGCGR (Homo sapiens, UniProt P47871); assay: Functional cAMP formation (HTRF) in HEK-293 clonal cells expressing hGCGR, 0.1% bovine casein, without or with 1.0% human serum albumin; settings: geometric mean
T2 construct: expressed in transfected cells
T2 sequence (P47871 26-477): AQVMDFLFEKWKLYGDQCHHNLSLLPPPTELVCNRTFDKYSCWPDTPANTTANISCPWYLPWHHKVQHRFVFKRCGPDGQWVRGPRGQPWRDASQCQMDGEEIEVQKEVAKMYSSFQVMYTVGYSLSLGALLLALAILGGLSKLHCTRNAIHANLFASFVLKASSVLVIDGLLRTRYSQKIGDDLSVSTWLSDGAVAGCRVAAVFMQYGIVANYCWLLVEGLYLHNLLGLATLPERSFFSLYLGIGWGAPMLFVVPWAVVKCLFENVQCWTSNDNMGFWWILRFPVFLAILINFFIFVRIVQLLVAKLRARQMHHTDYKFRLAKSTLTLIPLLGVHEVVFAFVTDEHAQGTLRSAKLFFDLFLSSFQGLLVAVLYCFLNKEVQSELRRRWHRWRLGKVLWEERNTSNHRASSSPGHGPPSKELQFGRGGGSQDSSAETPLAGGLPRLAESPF
Summary of the method: as §1

hGLP-1R = hGLP-1R (Homo sapiens, UniProt P43220); assay: Functional cAMP formation (HTRF) in HEK-293 clonal cells expressing hGLP-1R, 0.1% bovine casein, without or with 1.0% human serum albumin; set-up: expressed in transfected cells; settings: for EC50: geometric mean; for Emax: read-out: hGLP-1R Emax, % ± SEM
Sequence of hGLP-1R (P43220 24-463): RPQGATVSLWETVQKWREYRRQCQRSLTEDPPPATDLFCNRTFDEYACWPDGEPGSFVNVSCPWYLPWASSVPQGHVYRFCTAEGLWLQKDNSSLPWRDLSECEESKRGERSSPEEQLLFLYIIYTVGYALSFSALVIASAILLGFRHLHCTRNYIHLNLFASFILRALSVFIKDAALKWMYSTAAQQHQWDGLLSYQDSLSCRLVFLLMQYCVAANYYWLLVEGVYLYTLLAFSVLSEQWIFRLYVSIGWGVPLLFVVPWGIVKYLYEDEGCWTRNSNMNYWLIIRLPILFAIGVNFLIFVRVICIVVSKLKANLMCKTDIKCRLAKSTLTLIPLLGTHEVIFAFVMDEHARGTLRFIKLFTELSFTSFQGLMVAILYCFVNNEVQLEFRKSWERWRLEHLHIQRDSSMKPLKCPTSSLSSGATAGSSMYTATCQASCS
Summary of the method: as §1

[1] = HEK293, 0.1% bovine casein and 1.0% human serum albumin, 37° C., percent of maximal response to GIP(1-42)NH2, read-out: hGIPR Emax, % ± SEM
[2] = 0.1% bovine casein and 1.0% human serum albumin, 37° C., read-out: hGCGR EC50, nM (SEM, n)
[3] = 0.1% bovine casein and 1.0% human serum albumin, 37° C., read-out: hGLP-1R EC50, nM (SEM, n)
[4] = HEK293, 0.1% bovine casein and 1.0% human serum albumin, 37° C., percent of maximal response to GLP-1(7-36)NH2
[5] = HEK293, percent of maximal response to GIP(1-42)NH2, 37° C., 0.1% bovine casein, arithmetic mean, read-out: hGIPR Emax, % ± SEM
[6] = cAMP, incubated at 37° C., 0.1% bovine casein (no human serum albumin), read-out: hGCGR EC50, nM (SEM, n)

| EC50 (hGLP-1R; cAMP, incubated at 37° C., 0.1% bovine casein (no human serum albumin), read-out: hGLP-1R EC50, nM (SEM, n)) | Compound | Emax (hGIPR; [1]) | Emax (hGIPR; HEK293, cAMP, 37° C., 0.1% bovine casein, percent of maximal response to GIP(1-42)NH2, arithmetic mean, read-out: hGIPR Emax, % ± SEM) | EC50 (hGIPR; 37° C.) | EC50 (hGCGR; [2]) | EC50 (hGCGR; cAMP, 37° C., 0.1% bovine casein (no human serum albumin), read-out: hGCGR EC50, nM (SEM, n)) | EC50 (hGLP-1R; [3]) | Emax (hGLP-1R; [4]) | Emax (hGLP-1R; HEK293, cAMP, 37° C., 0.1% bovine casein, percent of maximal response to GLP-1(7-36)NH2, arithmetic mean) | Emax (hGIPR; HEK293, read-out: hGIPR Emax, % ± SEM, percent of maximal response to GIP(1-42)NH2, 37° C., 0.1% bovine casein, arithmetic mean) | EC50 (hGCGR; hGCGR EC50, nM (SEM, n), cAMP, incubated at 37° C., 0.1% bovine casein (no human serum albumin)) | EC50 (hGLP-1R; hGLP-1R EC50, nM (SEM, n), cAMP, incubated at 37° C., 0.1% bovine casein (no human serum albumin)) | Emax (hGIPR; [5]) | EC50 (hGCGR; [6]) | EC50 (hGIPR; incubated at 37° C.) | Emax (hGLP-1R; HEK293, percent of maximal response to GLP-1(7-36)NH2, 37° C., 0.1% bovine casein, arithmetic mean) |
| --- | --- | --- | --- | --- | --- | --- | --- | --- | --- | --- | --- | --- | --- | --- | --- | --- |
| – | CC[C@H](C)[C@H](NC(=O)[C@H](CC(C)C)NC(=O)[C@](C)(Cc1ccc(O)cc1)NC(=O)[C@@H](CCC(=O)O)NC(=O)[C@@H](NC(=O)[C@H](Cc1ccccc1)NC(=O)[C@H](CCC(=O)O)NC(=O)C(C)(C)NC(=O)[C@H](CCC(N)=O)NC(=O)[C@H](C)NC(=O)[C@H](CCCCNC(=O)COCCOCCNC(=O)COCCOCCNC(=O)CCCCCCCCCCCCC(=O)O)NC(=O)[C@H](CCCN)NC(=O)[C@H](CC(=O)O)NC(=O)[C@H](CC(C)C)NC(=O)[C@](C)(CC(C)C)NC(=O)[C@@H](NC(=O)[C@H](CO)NC(=O)[C@H](Cc1ccc(OC)cc1)NC(=O)[C@H](CC(=O)O)NC(=O)[C@H](CO)NC(=O)[C@@H](NC(=O)[C@](C)(Cc1ccccc1F)NC(=O)[C@@H](NC(=O)CNC(=O)[C@H](CCC(=O)O)NC(=O)C(C)(C)NC(=O)[C@@H](N)Cc1ccc(O)cc1)[C@@H](C)O)[C@@H](C)O)[C@@H](C)CC)[C@@H](C)CC)C(=O)N[C@@H](CCCCNC(=O)COCCOCCNC(=O)COCCOCCNC(=O)CCCCCCCCCCCCC(=O)O)C(=O)NCC(=O)NCC(=O)N1CCC[C@H]1C(=O)N[C@@H](CO)C(=O)N[C@@H](CO)C(=O)NCC(=O)N[C@@H](C)C(=O)N1CCC[C@H]1C(=O)N1CCC[C@H]1C(=O)N1CCC[C@H]1C(=O)N[C@@H](CO)C(N)=O [Example 266] (H-Y[Aib]EGT[αMePhe(2-F)]TSDY(Me)SI[αMeL]LD[Orn]K([AEEA-AEEA-C14 diacid])AQ[Aib]EFI[dE][αMeY]LIK([AEEA-AEEA-C14 diacid])GGPSSGAPPPS-NH2) | 82.7% | 93.2% | 0.0136 nM | > 9950 nM | > 9950 nM | 5.83 nM | 97.6% | 90.5% | – | – | – | – | – | – | – |
| – | CC[C@H](C)[C@H](NC(=O)[C@H](CC(C)C)NC(=O)[C@](C)(Cc1ccc(O)cc1)NC(=O)[C@H](CCCCNC(=O)COCCOCCNC(=O)COCCOCCNC(=O)CC[C@H](NC(=O)CCCCCCCCCCCCC(=O)O)C(=O)O)NC(=O)[C@@H](NC(=O)[C@H](Cc1ccccc1)NC(=O)[C@H](CCC(=O)O)NC(=O)C(C)(C)NC(=O)[C@H](CCC(N)=O)NC(=O)[C@H](C)NC(=O)[C@H](CCCCNC(=O)COCCOCCNC(=O)COCCOCCNC(=O)CC[C@H](NC(=O)CCCCCCCCCCCCC(=O)O)C(=O)O)NC(=O)[C@H](CCCN)NC(=O)[C@H](CC(=O)O)NC(=O)[C@H](CC(C)C)NC(=O)[C@](C)(CC(C)C)NC(=O)[C@@H](NC(=O)C(C)(C)NC(=O)[C@H](Cc1ccncc1)NC(=O)[C@H](CC(=O)O)NC(=O)[C@H](CO)NC(=O)[C@@H](NC(=O)[C@](C)(Cc1ccccc1F)NC(=O)[C@@H](NC(=O)CNC(=O)[C@H](CCC(=O)O)NC(=O)C(C)(C)NC(=O)[C@@H](N)Cc1ccc(O)cc1)[C@@H](C)O)[C@@H](C)O)[C@@H](C)CC)[C@@H](C)CC)C(=O)N[C@@H](CCC(=O)O)C(=O)NCC(=O)NCC(=O)N1CCC[C@H]1C(=O)N[C@@H](CO)C(=O)N[C@@H](CO)C(=O)NCC(=O)N[C@@H](C)C(=O)N1CCC[C@H]1C(=O)N1CCC[C@H]1C(=O)N1CCC[C@H]1C(=O)N[C@@H](CO)C(N)=O [Example 113] | – | – | – | – | – | – | – | – | 97.9 ± 3.21% | > 9950 nM | 0.291 nM | – | – | – | – |
| 1.69 nM | CC[C@H](C)[C@H](NC(=O)[C@H](CC(C)C)NC(=O)[C@](C)(Cc1ccc(O)cc1)NC(=O)[C@@H](CCC(=O)O)NC(=O)[C@@H](NC(=O)[C@H](Cc1ccccc1)NC(=O)[C@H](CCC(=O)O)NC(=O)C(C)(C)NC(=O)[C@H](CCC(N)=O)NC(=O)[C@H](C)NC(=O)[C@H](CCCCNC(=O)COCCOCCNC(=O)COCCOCCNC(=O)CC[C@H](NC(=O)CCCCCCCCCCCCC(=O)O)C(=O)O)NC(=O)[C@H](CCCN)NC(=O)[C@H](CC(=O)O)NC(=O)[C@H](CC(C)C)NC(=O)[C@](C)(CC(C)C)NC(=O)[C@@H](NC(=O)[C@H](CO)NC(=O)[C@H](Cc1ccncc1)NC(=O)[C@H](CC(=O)O)NC(=O)[C@H](CO)NC(=O)[C@@H](NC(=O)[C@](C)(Cc1ccccc1F)NC(=O)[C@@H](NC(=O)CNC(=O)[C@H](CCC(=O)O)NC(=O)C(C)(C)NC(=O)[C@@H](N)Cc1ccc(O)cc1)[C@@H](C)O)[C@@H](C)O)[C@@H](C)CC)[C@@H](C)CC)C(=O)N[C@@H](CCC(=O)O)C(=O)NCC(=O)NCC(=O)N[C@@H](CCCCNC(=O)COCCOCCNC(=O)COCCOCCNC(=O)CC[C@H](NC(=O)CCCCCCCCCCCCC(=O)O)C(=O)O)C(=O)N[C@@H](CO)C(=O)N[C@@H](CO)C(=O)NCC(=O)N[C@@H](C)C(=O)N1CCC[C@H]1C(=O)N1CCC[C@H]1C(=O)N1CCC[C@H]1C(=O)N[C@@H](CCCN)C(N)=O [Example 154] | 93 ± 4.96% | – | – | > 9950 nM | – | 70.5 nM | – | – | – | – | – | 96.6 ± 3.26% | > 9950 nM | – | – |
| – | CC[C@H](C)[C@H](NC(=O)[C@H](CC(C)C)NC(=O)[C@](C)(Cc1ccc(O)cc1)NC(=O)[C@@H](CCC(=O)O)NC(=O)[C@@H](NC(=O)[C@H](Cc1ccccc1)NC(=O)[C@H](CCC(=O)O)NC(=O)C(C)(C)NC(=O)[C@H](CCC(N)=O)NC(=O)[C@H](C)NC(=O)[C@H](CCCCNC(=O)COCCOCCNC(=O)COCCOCCNC(=O)CCCCCCCCCCCCC(=O)O)NC(=O)[C@H](CCCN)NC(=O)[C@H](CC(=O)O)NC(=O)[C@H](CC(C)C)NC(=O)[C@](C)(CC(C)C)NC(=O)[C@@H](NC(=O)[C@H](CO)NC(=O)[C@H](Cc1ccncc1)NC(=O)[C@H](CC(=O)O)NC(=O)[C@H](CO)NC(=O)[C@@H](NC(=O)[C@](C)(Cc1ccccc1F)NC(=O)[C@@H](NC(=O)CNC(=O)[C@H](CCC(=O)O)NC(=O)C(C)(C)NC(=O)[C@@H](N)Cc1ccc(O)cc1)[C@@H](C)O)[C@@H](C)O)[C@@H](C)CC)[C@@H](C)CC)C(=O)N[C@@H](CCC(=O)O)C(=O)NCC(=O)NCC(=O)N1CCC[C@H]1C(=O)N[C@@H](CO)C(=O)N[C@@H](CO)C(=O)NCC(=O)N[C@@H](C)C(=O)N1CCC[C@H]1C(=O)N1CCC[C@H]1C(=O)N1CCC[C@H]1C(=O)N[C@@H](CO)C(=O)N[C@@H](CCCCNC(=O)COCCOCCNC(=O)COCCOCCNC(=O)CCCCCCCCCCCCC(=O)O)C(N)=O [Example 221] | 67.4% | – | – | > 9950 nM | – | 17.9 nM | 92.3% | – | – | – | – | 81.8% | > 9950 nM | 0.0279 nM | 83% |
